Source: patent US9855346B2, “Fluorescent dye compositions and uses thereof” (Chang Gung University of Science and Technology, priority 2014, dated 2018)

How the values were obtained:
[1] = NMR line width of half-amplitude (mobility of CP); assay type: physicochemical; settings: line width at half amplitude of methylene protons, 1H-NMR
Procedure: The mobility of CP in the compositions was evaluated by NMR, by measuring the line widths of half-amplitude (Hz) of methylene protons. Compositions were diluted with deuterium oxide by 3-fold. Neat CP was diluted with chloroform-d. The compositions were loaded into NMR tubes and their ^1H-NMR spectra were examined by Avance 400 spectrometer (Bruker, Bremen, Germany).
The mobility of solid fatty ester in lipid cores of the CP-containing compositions was examined by proton NMR. The line width of signals for neat CP was 3.50 Hz.

[2] = In vivo real-time optical imaging after IV injection; set-up: species or system Sprague-Dawley rats; settings: rats
Procedure: Male Sprague-Dawley rats aged 8˜10 weeks was supplied by Lasco (Taipei, Taiwan). Animal experimental protocol was approved by the Institutional Animal Care and Use Committee of Chang Gung University, Taiwan. The rats had free access to water and food at all time. The rats were anesthetized and injected with the compositions of the present invention or the control solution (dimethyl sulfoxide:Tween 80:normal saline=4:2:4) at a DiR dose of 40 μg/kg via femoral vein. In vivo real-time imaging was acquired using Pearl® Impulse at NIR wavelength. Rats were sacrificed 4 h post-injection. The following organs were collected and washed with normal saline: skin, muscle, heart, lungs, liver, spleen, and kidneys. The fluorescence intensity in these organs was assessed Ex Vivo by Pearl® Impulse. In Vivo optical images were taken after ICG, control DiR solution (with 40% v/w dimethyl sulfoxide) and S1-S4 compositions were administered into the rats via intravenous (IV) injection.

Structure (SMILES)	Line width (Hz) [1] [Hz]	time post-injection at which fluorescence is detected in the liver (liver clearance) [2] [min]	imaging time ([2]; fluorescence activity in large and small vessels)
CCCCCCCCCCCCCCCCOC(=O)CCCCCCCCCCCCCCC [CP, Cetyl palmitate]	3.50		
CC1(C)C(/C=C/C=C/C=C/C=C2\N(CCCCS(=O)(=O)O)c3ccc4ccccc4c3C2(C)C)=[N+](CCCCS(=O)(=O)[O-])c2ccc3ccccc3c21 [ICG, Indocyanine green]		≤ 5	about 5 min
